{"source": "patent US20200022944A1", "about": "“COMPOSITION OR MEDICAL FOOD TO EXTRACT THE DIETARY IRON AND BOOST ITS BIOAVAILABILITY FOR IRON DEFICIENCY (ID) AND ID-ANEMIA” (TIXUPHARMA DI CARLO GHISALBERTI, priority 2017, published 2020)", "key": {"[1]": {"experiment": "In vitro digestion model: extraction of dietary non-heme iron from vegetal foods", "conditions": "for yield of extracted iron from vegetal food: canned soybean, red beans, peas, 1 ml 10 mM, versus water control; for surplus of yields of gastroactive (GA) model over gastropassive (GP) condition: with versus without classic digestive enzymes", "protocol": "The method assessed the extraction of dietary non-heme iron by maltol or ethyl maltol in simulated digestion of vegetal foods, with/without digestive enzymes. In brief, samples (10 g) of vegetable foods, viz. canned soybean, red beans and peas were smashed in mortar with 5 ml water. Specimen were combined in 50 ml tubes supplemented with HCl solution (pH 2.5) of mix of classic digestive enzymes consisting in: 2 mg pepsin 1:3000; 0.5 mg lipase 200 FIP/g; and bile enzymes, i.e. 2.5 mg bovine bile extract; 1.25 pancreatin extract 4:1 in “gastroactive” model (“GA”). A parallel test named “gastropassive” use non enzymes. Tube were added with 1 ml maltol/ethyl maltol 10 mM, or water in control, and underwent 2 hours of slow motion (60 o/min) at controlled temperature. The pH was finally adjusted to 6-7 (1N NaOH) and the tubes remained on oscillation for further 30 min. The digests were collected, filtered at 100 μm mesh, diluted and read at 405 nm. Results expressed as % recovery of Fe calculated against a calibration curve) are plotted in FIG. 3."}, "[2]": {"conditions": "pH 6", "procedure": "(§1) (a) maltol (MAL) and ethyl maltol (EMAL) at 10 mM concentration;\n(§2) (c) iron sources: FAC (Fe^III) and ferrous sulfate (FS, Fe^III) at 1:10 eq/eq with respect to AA, at 1:20 eq/eq with respect to CA, and at 1:5 eq/eq with respect to MAL.\n(§3) The final Fe concentration was fixed 200 μM with the other molar ratio as listed above, while the solution were then neutralized to pH 6-7.\nTotal iron was determined by inductively-coupled plasma optical emission spectrometry, where both ICP-OES standards and samples were diluted in 0.5% HNO3 in 0-1000 ppb range. Physical classification of iron was assessed after centrifugation (10,000×g, 5 min.), the supernatant was ultrafiltrated with 3kDa MWCO filter 10,000×g, 10 min. Phase distribution was calculated as: iron microparticulate (total Fe−Fe in supernatant), iron nanoparticulate (Fe ultrafiltrate−Fe in supernatant) and soluble iron (Fe ultrafiltrate/total Fe)."}, "[3]": {"experiment": "Cell-free in vitro competition test for Fe(III) versus antinutrients", "type": "physicochemical", "conditions": "for recovery of Fe as 1:3 Fe-ligand complex in competition with non-cathecolic polyphenols (avg.): average; for recovery of Fe as 1:3 Fe-ligand complex in competition with non-cathecolic polyphenols (avg.) / recovery of Fe as 1:3 Fe-ligand complex in competition with oxalates / recovery of Fe as 1:3 Fe-ligand complex in competition with phosphate: vs citrate ref standard of 100% recovery; for recovery of Fe as 1:3 Fe-ligand complex in competition with oxalates / recovery of Fe as 1:3 Fe-ligand complex in competition with phosphate: sequential pH 6/2.5/6.5, CH2Cl2 extract read at 405 nm; for iron competition versus phytate and catecholic polyphenols: without enzymatic co-treatment", "protocol": "The method evaluates the competitive affinity for Fe(III) of maltol/ethyl maltol versus antinutrients, i.e. the iron sequestering agents occurring in food, in a 3-step method which adopts a sequential pH 6/2.5/6.5 mimic the pHs occurring in stomach at fast, during gastro digestion and in duodenum, respectively. Stock solution at 10 mM conc. were prepared by dissolving in water the following reagents: (a) antinutrient series: EDTA (EDTA=negative control), ellagic acid (ELL), gallic acid (GAL), hesperidin (HES), naringin (NAR), monosodium oxalate (OXA), disodium phosphate (PHO), quercetin (QUE), rutin (RUT), tannic acid (TAN), phytic acid sodium salt (PHY); wherein the cathecolic polyphenols (CPP) are presented as pooled (b) maltol (MAL) and ethyl maltol (EMAL); […] In brief, in 15-ml tubes were combined 100 μl of 10 mM FAC (1 μmol); 1 ml of 10 mM CaCl2 (10 μmol); 1 ml of 10 mM 3-hydroxy-4-pyrone (10 μmol); 1 ml of each antinutrient at 10 mM (10 μmol); and 2 ml of water to 5 ml final volume. No antinutrients were introduced in the positive control. Tubes were oscillated at 30 rpm for 2.5 hours, of which: 1 hour at initial pH 6-6.5; 1 hour at pH 2-2.5 (by 50 μl 1N HCl), and final 30 min. at pH around 6.5 (by 50 μl 1N NaOH). The tubes were then added with 2 ml di CH2Cl2 and shacked for 2 min. […] Residues were taken up with 2 ml water and read at 405 nm. Absorbance calibration: r=0.30 and linear correlation within the 40-4 μM range (r2=1; […] on 0-intercept)."}, "[4]": {"test_system": "inflammatory bowel disease", "conditions": "animal model of IBD; Minaiyan et al. 2012; cited from earlier work"}, "Caco-2 cells": {"test_system": "Caco-2 cells", "experiment": "Caco-2 monolayer absorption: ferritin formation", "conditions": "1 h contact at 37° C., 23 h re-incubation; Fe 200 μM", "procedure": "Caco-2 cells cultivated and used at passages 24-50 in culture medium, serum-free MEM, were exposed to test substances in culture medium.\nas §1, §2, §3\nOne hour contact at 37° C. was used for similarity of duodenal contact time. After incubation 1 h the medium was aspirated, cell monolayer washed 3× PBS-EDTA and fresh MEM added. Cells were re-incubated for 23 h to allow ferritin formation, lysed with 400 μl of MPER® lysis buffer, lysate collected, centrifuged for 5′ at 16,000×g, and supernatant collected for analysis. The solutions were filter-sterilized (0.2 μm syringe filter) prior dilution in the culture medium.\nFerritin content of Caco-2 cells was determined by an ELISA kit, results corrected for the baseline values and expressed in relation to total cell protein in ng ferritin/mg cell protein."}, "[5]": {"test_system": "rodents conducted to anemia by iron starvation", "experiment": "Murine model of anemic therapy (iron-deficient diet)", "type": "in vivo, female Wistar rats", "conditions": "normalized-iron vegetal diet comprising the substance after ID diet, compared to both controls", "protocol": "This in vivo murine study sized the capacity of maltol/ethyl maltol compounded into food to enhance iron uptake in rodents conducted to anemia by iron starvation. For that purpose, 6-wk old female Wistar rats were fed for 28 days a iron-deficient diet (Fe:12 mg/kg), labeled IDD1. A control group received standard diet (Fe:45 mg/kg) (Ctrl1) along the entire experiment. In the second stage, IDD1 rats were randomized for 26 days test diets conceived as follows: the M3 and EM3 groups received cookies with 3% of maltol or 3% ethyl maltol, respectively. The M/EMO group was fed with cookies without maltol/ethyl maltol; while the IDD2 group was maintained at Fe-deficient diet. […] Cookies were produced from corn flour and vegetal fat, and backed at 180° C. for 15 minM, whereas in M3 and EM3 groups a portion (3%) of corn flour was replaced with maltol and ethyl maltol. Animals were kept in room with 12 h light/dark cycle, temperature of 24° C. […], and drinking water ad libitum. […] Serum iron was measured at 623 nm, haemoglobin content (Hb) total iron binding capacity (TIBC), erythrocytes, haemoglobin (Hb), hematocrit (Ht), mean corpuscular volume (MCV), mean corpuscular haemoglobin (MCH), and MCH concentration (MCHC) assessed according to Regula et al. Ann Agric Environ Med 2016;23(2):310-4. Iron transferrin saturation (TSAT) was calculated by the formula: TSAT=(Fe/TIBC)×[…]."}}}
{"smiles": "Cc1occc(=O)c1O", "note": "[maltol]", "values": [{"measurement": "yield of extracted iron from vegetal food", "setting": "[1]", "result": "increased the yield of extracted iron from vegetal food"}, {"measurement": "surplus of yields of gastroactive (GA) model over gastropassive (GP) condition", "setting": "[1]", "result": "about 10%"}, {"measurement": "iron solubility / phase distribution", "setting": "[2]", "result": "retain the Fe(III) solubility at supplemental levels"}, {"measurement": "recovery of Fe as 1:3 Fe-ligand complex in competition with non-cathecolic polyphenols (avg.)", "setting": "[3]", "result": 95, "unit": "%"}, {"measurement": "recovery of Fe as 1:3 Fe-ligand complex in competition with oxalates", "setting": "[3]", "result": 89, "unit": "%"}, {"measurement": "recovery of Fe as 1:3 Fe-ligand complex in competition with phosphate", "setting": "[3]", "result": 98, "unit": "%"}, {"measurement": "iron competition versus phytate and catecholic polyphenols", "setting": "[3]", "result": "limited efficiency"}, {"measurement": "therapeutic dosage (ED50)", "setting": "[4]", "result": "140-240 mg/kg bw"}, {"measurement": "ferritin formation in Caco-2 cells", "setting": "Caco-2 cells", "result": "produced soluble iron utilized by enteric cells for ferritin synthesis"}, {"measurement": "recovery of iron and hematologic levels", "setting": "[5]", "result": "faster recovery of iron and hematologic levels"}]}
{"smiles": "CCc1occc(=O)c1O", "note": "[ethyl maltol]", "values": [{"measurement": "yield of extracted iron from vegetal food", "setting": "[1]", "result": "increased the yield of extracted iron from vegetal food"}, {"measurement": "surplus of yields of gastroactive (GA) model over gastropassive (GP) condition", "setting": "[1]", "result": "about 10%"}, {"measurement": "recovery of Fe as 1:3 Fe-ligand complex in competition with non-cathecolic polyphenols (avg.)", "setting": "[3]", "result": 95, "unit": "%"}, {"measurement": "recovery of Fe as 1:3 Fe-ligand complex in competition with oxalates", "setting": "[3]", "result": 89, "unit": "%"}, {"measurement": "recovery of Fe as 1:3 Fe-ligand complex in competition with phosphate", "setting": "[3]", "result": 98, "unit": "%"}, {"measurement": "iron competition versus phytate and catecholic polyphenols", "setting": "[3]", "result": "limited efficiency"}, {"measurement": "ferritin formation in Caco-2 cells", "setting": "Caco-2 cells", "result": "produced soluble iron utilized by enteric cells for ferritin synthesis"}, {"measurement": "recovery of iron and hematologic levels", "setting": "[5]", "result": "faster recovery of iron and hematologic levels"}]}
